# Measured values: PMC5464344, “Analgesic and anti‐inflammatory properties of novel, selective, and potent EP4 receptor antagonists” (Pharmacology Research & Perspectives, 2017)
# Values joined by “and” are separate entries in the source; they are usually repeats but may differ in a detail not shown here. Equal values may be shown once.
# What was measured:
# [1] = system: male Lewis rats, adjuvant induced arthritis; assay: AIA model of inflammation (paw swelling); assay type: in vivo; details: rat AIA; 10 mg/kg oral once daily 4 days; P < 0.05 by Dunnett's test
# Procedure: (§1) For the monoiodoacetate (MIA) and adjuvant induced arthritis (AIA) studies, male Lewis rats (Envigo, Indianapolis, IN) of approximately 8 weeks of age at the time of disease induction were used. For collagen induced arthritis studies (CIA) female Lewis rats (Charles River) weighing 150–170 g were used. Rats were housed in groups of 2 or 3 per cage and maintained in a constant temperature, and on a 12 h light/12 h dark cycle. Animals had free access to food and water at all times except during data collection.
# On Day 0, paw widths of both right and left paws were measured between the lateral and dorsal surfaces using calipers, and a mean paw thickness for each rat was calculated by averaging these measurements. Rats were then inoculated intradermally with 0.25 mg of adjuvant (M. Tuberculosis H37 RA from Difco) in 100 μL of mineral oil at the base of the tail to induce adjuvant disease. Eleven days post inoculation paw widths of both right and left paws were measured again, and the percent change from the Day 0 reading was calculated. […] On the fifth day after dosing started (day 15 post adjuvant injection) the rats were euthanized without further dosing and paw width measured again. The percent increase in mean paw thickness from day 11 to day 15 was then calculated as a measure of paw swelling which is indicative of the amount of inflammation in the paws measured. […]
# [2] = system: female Lewis rats, collagen induced arthritis; assay: Type-II CIA model of inflammation and autoimmunity; assay type: in vivo; details: rat CIA
# Procedure: as §1
# On day 1 of the study ankle widths are measured across the joint (left side to right side) at the thickest point with calipers and rats immunized intradermally near the base of the tail with 0.4 mL of 1 mg/mL type II collagen (Elastin Products) emulsified with incomplete Freund's adjuvant (Sigma Aldrich). A second booster injection booster of 0.4 mL of the collagen emulsion was given on day 8 of the study. Ankle widths were measured on day 8 before the collagen injection and every 2–3 days thereafter until study end. On day 11 rats were randomized into five groups of eight animals based on inflammation (redness and/or swelling) in their hind paws and body weight. Rats were then dosed with vehicle (10% Acacia plus 0.05% antifoam) and compound 3 at doses of 3, 10, and 30 mg/kg. Prednisolone was included at a dose of 10 mg/kg as a positive control. Dosing was by oral gavage once daily for seventeen days at a dose volume of 5 mL/kg. On day 28 rats were euthanized and hind paws and knee joints collected for histology. Ankles and knees were fixed in neutral buffered formalin, decalcified, embedded in paraffin, and sectioned according to standard histological methodology and the joints were then scored by a pathologist using published scoring criteria (Bendele 2001; Levine et al. 2014).
# Human EP4 [3] = target: T1, Human EP4 (Homo sapiens, UniProt P35408); assay: PGE2 stimulated cAMP production by HEK293/EP4 cell line; assay type: cell-based
# T1 sequence (P35408 whole entry): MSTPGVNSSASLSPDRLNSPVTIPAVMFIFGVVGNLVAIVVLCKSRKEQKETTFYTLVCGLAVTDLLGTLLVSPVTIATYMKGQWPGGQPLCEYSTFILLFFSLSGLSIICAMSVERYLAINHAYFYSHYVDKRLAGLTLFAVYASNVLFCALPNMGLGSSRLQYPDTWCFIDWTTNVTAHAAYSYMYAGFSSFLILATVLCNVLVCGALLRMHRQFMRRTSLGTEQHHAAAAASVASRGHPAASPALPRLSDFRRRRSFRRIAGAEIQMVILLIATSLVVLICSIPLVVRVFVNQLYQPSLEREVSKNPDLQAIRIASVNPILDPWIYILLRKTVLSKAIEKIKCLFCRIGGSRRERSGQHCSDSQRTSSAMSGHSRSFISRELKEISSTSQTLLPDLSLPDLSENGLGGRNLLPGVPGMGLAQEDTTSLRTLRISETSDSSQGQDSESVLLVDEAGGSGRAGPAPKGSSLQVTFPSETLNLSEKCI
# Procedure: (§2) Human EP4 (GenBank Accession # AY429109, Clone ID PER0400000, UMR cDNA Resource Center, Rolla, MO) was stably expressed in HEK293 cells. Rat EP4 cDNA (GenBank Accession# NM_03276) was cloned into pcDNA 3.1 vector and stably transfected into HEK293 cells. The cell lines were maintained in DMEM (invitrogen) supplemented with 10% fetal bovine serum (FBS), 1 mmol/L sodium pyruvate, 10 mmol/L HEPES, 500 μg/mL geneticin and 2 mmol/L L‐glutamine. Confluent cultures were grown at 37°C in an atmosphere containing 5% CO2. […] Immediately prior to the assay, cells were thawed with DMEM and suspended in cAMP assay buffer (HBSS with 0.1% BSA, 20 mmol/L HEPES and 200 μmol/L IBMX).
# (§3) To measure the cAMP levels, cAMP‐d2 conjugate and anti cAMP‐cryptate conjugate in lysis buffer were incubated with the treated cells at room temperature for 1 h. […] The raw data were converted to cAMP (nmol/L) using a cAMP standard curve generated for each experiment. Data were analyzed using a 4‐parameter nonlinear logistic equation. Results are expressed as the geometric mean ± standard deviation or geometric mean ± standard error as noted.
# human EP1 receptor = target: T2, human EP1 receptor (Homo sapiens, UniProt P34995); assay: [3H]-PGE2 receptor binding assay, EP1 membranes
# T2 construct: membrane preparation
# T2 sequence (P34995 1-402): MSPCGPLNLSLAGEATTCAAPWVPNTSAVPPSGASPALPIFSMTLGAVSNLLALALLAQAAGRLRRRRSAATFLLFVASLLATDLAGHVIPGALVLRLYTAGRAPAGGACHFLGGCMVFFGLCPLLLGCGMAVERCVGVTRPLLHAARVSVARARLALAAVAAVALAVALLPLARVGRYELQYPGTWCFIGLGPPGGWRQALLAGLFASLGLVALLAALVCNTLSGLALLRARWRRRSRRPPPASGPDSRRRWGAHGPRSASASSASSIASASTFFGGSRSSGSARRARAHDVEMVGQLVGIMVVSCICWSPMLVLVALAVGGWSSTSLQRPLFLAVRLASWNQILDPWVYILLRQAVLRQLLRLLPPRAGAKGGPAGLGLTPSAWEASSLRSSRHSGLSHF
# Procedure: (§4) Receptor binding assays were done using membrane preparations of HEK 293 cells transfected with various prostanoid receptors using previously published procedure (Nakao et al. 2007). EP1 and EP4 membranes were prepared from recombinant HEK293 cells stably expressing human EPl receptor (GenBank Accession # AY275470, Clone ID PER0100000, UMR cDNA Resource Center, Rolla, MO) or human EP4 receptor. EP2 and EP3 membranes were prepared from HEK293 cells transiently transfected with human EP2 receptor (GenBank Accession # AY275471, Clone ID PER0200000, UMR cDNA Resource Center, Rolla, MO) or human EP3 receptor (GenBank Accession # AY429108, Clone ID PER3VI0000, UMR cDNA Resource Center, Rolla, MO) plasmids. Frozen cell pellets were homogenized in homogenization buffer (10 mmol/L Tris‐HCl, pH7.4, 250 mmol/L sucrose, 1 mmol/L EDTA, 0.3 mmol/L indomethacin and protease inhibitor cocktail with EDTA (Roche Molecular Biochemicals, catalog # 1691498)) using a Teflon/glass homogenizer. After a low speed centrifugation (200g for 15 min at 4°C) the supernatant was subjected to high speed centrifugation (30,000g for 60 min at 4°C). Membrane protein preparation was aliquoted and quick frozen on dry ice prior to storage at −80°C. […] Compounds were tested in a 96‐well format using a three‐fold dilution series to generate 10‐point curves. […] The binding reaction was performed in 200 μL MES buffer (10 mmol/L MES, pH 6.0, 10 mmol/L MgCl2, and l mmol/L EDTA) using polystyrene 96‐well plates. […] The membranes were harvested by filtration (TomTek harvester), washed four times with cold buffer (10 mmol/L MES, pH 6.0, 10 mmol/L MgCl2), dried in a 60°C oven, and the radioactivity was quantified as counts per min (CPM) using a TopCount detector. […] Data were analyzed using a 4‐parameter nonlinear logistic equation. K i Conversion from IC50 Values (K i = […] where [L] is the ligand concentration). Results are expressed as the geometric mean ± standard deviation or geometric mean ± standard error as noted.
# human EP2 receptor = target: T3, human EP2 receptor (Homo sapiens, UniProt P43116); assay: [3H]-PGE2 receptor binding assay, EP2 membranes; details: HEK293 membranes; [3H]-PGE2; geometric mean ± SEM; read-out: hEP1-4 receptor binding EP2 Ki
# T3 construct: host or cells: HEK293, transient; membrane preparation
# T3 sequence (P43116 whole entry): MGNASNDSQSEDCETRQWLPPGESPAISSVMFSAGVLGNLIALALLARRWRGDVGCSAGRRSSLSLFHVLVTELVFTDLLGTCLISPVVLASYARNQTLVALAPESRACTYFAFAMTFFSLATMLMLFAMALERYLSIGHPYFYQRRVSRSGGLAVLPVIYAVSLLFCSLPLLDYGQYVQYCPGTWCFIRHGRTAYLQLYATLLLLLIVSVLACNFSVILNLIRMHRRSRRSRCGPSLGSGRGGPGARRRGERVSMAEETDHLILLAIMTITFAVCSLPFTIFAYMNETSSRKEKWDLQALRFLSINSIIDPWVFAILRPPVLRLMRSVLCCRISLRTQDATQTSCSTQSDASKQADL
# Procedure: as §4
# Rat EP4 = target: T4, Rat EP4 (Rattus norvegicus, UniProt P43114); assay: EP4 cAMP antagonist assay (HTRF), rat EP4; assay type: cell-based; details: read-out: cAMP Antagonism Rat EP4 IC50
# T4 construct: expressed in transfected cells
# T4 sequence (P43114 whole entry): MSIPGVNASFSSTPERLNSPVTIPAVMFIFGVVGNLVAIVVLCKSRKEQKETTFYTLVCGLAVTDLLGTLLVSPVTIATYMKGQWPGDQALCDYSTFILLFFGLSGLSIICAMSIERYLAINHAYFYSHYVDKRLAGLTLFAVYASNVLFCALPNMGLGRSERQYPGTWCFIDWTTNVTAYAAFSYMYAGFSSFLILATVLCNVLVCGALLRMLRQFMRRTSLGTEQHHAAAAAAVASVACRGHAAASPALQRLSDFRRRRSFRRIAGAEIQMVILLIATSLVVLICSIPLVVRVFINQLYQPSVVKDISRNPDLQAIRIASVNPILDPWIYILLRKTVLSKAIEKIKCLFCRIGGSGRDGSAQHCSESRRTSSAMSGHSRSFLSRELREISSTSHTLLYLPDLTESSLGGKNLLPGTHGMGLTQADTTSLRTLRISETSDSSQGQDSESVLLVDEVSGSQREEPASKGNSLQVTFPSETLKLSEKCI
# Procedure: Human EP4 (GenBank Accession # AY429109, Clone ID PER0400000, UMR cDNA Resource Center, Rolla, MO) was stably expressed in HEK293 cells. Rat EP4 cDNA (GenBank Accession# NM_03276) was cloned into pcDNA 3.1 vector and stably transfected into HEK293 cells. The cell lines were maintained in DMEM (invitrogen) supplemented with 10% fetal bovine serum (FBS), 1 mmol/L sodium pyruvate, 10 mmol/L HEPES, 500 μg/mL geneticin and 2 mmol/L L‐glutamine. Confluent cultures were grown at 37°C in an atmosphere containing 5% CO2. Cells were harvested using 0.25% Trypsin‐ EDTA, suspended in freeze media at a density of 10^7cel1s/mL, and aliquots were stored in liquid nitrogen. Immediately prior to the assay, cells were thawed with DMEM and suspended in cAMP assay buffer (HBSS with 0.1% BSA, 20 mmol/L HEPES and 200 μmol/L IBMX).
# CJ‐023,423 served as the positive control. To measure the cAMP levels, cAMP‐d2 conjugate and anti cAMP‐cryptate conjugate in lysis buffer were incubated with the treated cells at room temperature for 1 h. The HTRF signal was detected using an EnVision plate reader (Perkin‐Elmer, Inc., Waltham, MA, USA.) to calculate the ratio of fluorescence at 665 to 620 nm. The raw data were converted to cAMP (nmol/L) using a cAMP standard curve generated for each experiment. Data were analyzed using a 4‐parameter nonlinear logistic equation. Results are expressed as the geometric mean ± standard deviation or geometric mean ± standard error as noted.
# Human EP4 [4] = target: T1, Human EP4; assay: [3H]-PGE2 receptor binding assay, EP4 membranes; design: expressed in transfected cells; membrane preparation; details: HEK293 membranes, geometric mean ± SEM, read-out: hEP1-4 receptor binding EP4 Ki
# Procedure: as §4
# human EP3 receptor = target: T5, human EP3 receptor (Homo sapiens, UniProt P43115); assay: [3H]-PGE2 receptor binding assay, EP3 membranes; details: HEK293 membranes, geometric mean ± SEM, read-out: hEP1-4 receptor binding EP3 Ki
# T5 sequence (P43115 1-359 limits assumed): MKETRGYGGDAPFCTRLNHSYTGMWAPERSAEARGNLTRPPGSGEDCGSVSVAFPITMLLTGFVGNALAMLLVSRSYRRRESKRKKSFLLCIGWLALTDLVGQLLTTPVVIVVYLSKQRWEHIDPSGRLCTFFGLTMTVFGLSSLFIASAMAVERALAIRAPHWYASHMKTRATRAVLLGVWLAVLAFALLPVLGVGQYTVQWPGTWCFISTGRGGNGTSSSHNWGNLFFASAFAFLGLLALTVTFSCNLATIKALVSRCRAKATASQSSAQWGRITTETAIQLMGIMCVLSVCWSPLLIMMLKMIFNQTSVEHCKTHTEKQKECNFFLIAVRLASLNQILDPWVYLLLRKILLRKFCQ
# Procedure: as §4
# Human EP4 [5] = target: T1, Human EP4; assay: EP4 cAMP antagonist assay (HTRF), human EP4; assay type: cell-based; details: HEK293 cells stably expressing human EP4; PGE2 at EC80; geometric mean ± SEM; read-out: cAMP Antagonism (hEP4) Human EP4 IC50
# Procedure: as §2, §3
# dogs with osteoarthritis = system: dogs with osteoarthritis; design: method as in Rausch‐Derra et al. 2016; details: prospective placebo controlled study, ref Rausch‐Derra et al. 2016; cited from earlier work
# [6] = 10 mg/kg oral once daily for seventeen days
structure (smiles),measurement,setting,value
"O=C(O)Cc1ccccc1Nc1c(Cl)cccc1Cl [diclofenac, reference compound]",increases in paw inflammation (swelling) compared to vehicle,[1],significantly inhibited
"C[C@]12C=CC(=O)C=C1CC[C@@H]1[C@@H]2[C@@H](O)C[C@@]2(C)[C@H]1CC[C@]2(O)C(=O)CO [prednisolone, Prednisolone]",reduction in summed scores (ankle histology),[2]; [6],93%
same,reductions in all ankle scores (histology),[2]; [6],87–99%
same,ankle thickness,"[2]; 10 mg/kg oral once daily, data not shown",significant reduction
same,knee joint histopathology (representative photomicrograph),"[2]; Fig. 10 bottom panel, prednisolone 10 mg/kg, compound 3 dose not given",very minimal inflammation (S) and cartilage damage not visible at this magnification
same,ankle joint histopathology (representative photomicrograph),"[2]; Fig. 10 top panel, prednisolone 10 mg/kg, compound 3 dose not given",minimal inflammation (S) and minimal cartilage damage
"CCCCC[C@H](O)/C=C/[C@H]1[C@H](O)CC(=O)[C@@H]1C/C=C\CCCC(=O)O [PGE2, Prostaglandin (PG) E2]",EC80 cAMP production,"Human EP4 [3]; HEK 293 cells stably transfected with human EP4 cDNA, 20 min",0.34 nM
same,EC80 cAMP production (Fig. 2A),"Human EP4 [3]; HEK‐293 cells stably transfected with human EP4 cDNA, 20 min at room temperature",0.34 nM
CCCCC[C@H](O)/C=C/[C@H]1[C@H](O)CC(=O)[C@@H]1C/C=C\CCCC(=O)O [^3[H] PGE2],Kd,"human EP1 receptor; read-out: ^3[H] PGE2 Binding/kd EP1, HEK 293 membranes, homologous competition (Fig. 3D)",5.62 nM
"CCc1nc2c(C)nc(C)cc2n1-c1ccc(CCNC(=O)NS(=O)(=O)c2ccc(C)cc2)cc1 [CJ‐023,423, N‐[({2‐[4‐(2‐ethyl‐4, 6‐dimethyl‐1H‐imidazo [4, 5–c]pyridin‐1‐yl)phenyl]ethyl}amino)carbonyl]‐4‐methylbenzenesulfonamide, reference compound]",Ki,human EP2 receptor,> 21600 nM
same,IC50,Rat EP4,13.1 ± 1 nM
same,Ki,Human EP4 [4],449 ± 123 nM
same,Ki,human EP3 receptor,> 19500 nM
same,IC50,Human EP4 [5],12 nM and 11.7 nM
same,Ki,"human EP1 receptor; HEK293 membranes, [3H]-PGE2, geometric mean ± SEM, read-out: hEP1-4 receptor binding EP1 Ki",> 22900 nM
same,efficacy for signs and symptoms of OA,dogs with osteoarthritis,efficacious
